Measurements as given in patent US8557816B2, “Aurora kinase modulators and method of use” (Amgen Inc., priority 2007, dated 2013).

How the values were obtained:
AuroraB = biological target: T1, AuroraB (Homo sapiens, UniProt Q96GD4); assay: AuroraB Homogeneous Time Resolved Fluorescent (HTRF) kinase assay; assay type: biochemical; settings: average; read-out: AurB_IC50_IP (uM Avg)
T1 construct: 20 μL of AuroraB FL H is for a final volume of 41 μL; His
Summary of the method: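 Full-length His-tagged kinase phosphorylates biotinylated Histone H3 (0.1 μM final) with ATP in pH 7.5 HEPES containing MgCl, MnCl, DTT and BSA for about 90 min. EDTA-containing detection mix with SA-APC and Eu-anti-phosphoHistone H3 then equilibrated about 60 min; HTRF read with 320 nm excitation, emissions 615/655 nm.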

AuroraA-TPX2 = biological target: T2, AuroraA-TPX2 (Homo sapiens, UniProt O14965); assay: AuroraA-TPX2 Homogeneous Time Resolved Fluorescent (HTRF) kinase assay; assay type: biochemical; settings: average; read-out: AurA_IC50_IP (uM Avg)
T2 construct: 20 μL of AuroraA-TPX2 KD GST for a final volume of about 41 μL; GST
T2 sequence (O14965 133-383 limits assumed): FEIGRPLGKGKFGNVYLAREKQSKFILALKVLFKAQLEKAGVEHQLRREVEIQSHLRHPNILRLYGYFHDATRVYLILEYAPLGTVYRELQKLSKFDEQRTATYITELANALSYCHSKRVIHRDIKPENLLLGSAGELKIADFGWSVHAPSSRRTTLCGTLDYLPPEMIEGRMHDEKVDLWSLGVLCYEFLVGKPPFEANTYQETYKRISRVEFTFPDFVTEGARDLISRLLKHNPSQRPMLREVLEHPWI
T2 sequence (Q9ULW0 1-43 partner limits assumed): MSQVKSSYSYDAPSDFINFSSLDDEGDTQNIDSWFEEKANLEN
Summary of the method: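 HTRF read-out (Eu 615 nm to APC 655 nm) of phosphorylated biotin-PLK, detected with 0.02 nM europium anti-phosphoPLK antibody and 0.0005 mg/mL SA-APC after overnight equilibration.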

T1 sequence (Q96GD4 whole entry): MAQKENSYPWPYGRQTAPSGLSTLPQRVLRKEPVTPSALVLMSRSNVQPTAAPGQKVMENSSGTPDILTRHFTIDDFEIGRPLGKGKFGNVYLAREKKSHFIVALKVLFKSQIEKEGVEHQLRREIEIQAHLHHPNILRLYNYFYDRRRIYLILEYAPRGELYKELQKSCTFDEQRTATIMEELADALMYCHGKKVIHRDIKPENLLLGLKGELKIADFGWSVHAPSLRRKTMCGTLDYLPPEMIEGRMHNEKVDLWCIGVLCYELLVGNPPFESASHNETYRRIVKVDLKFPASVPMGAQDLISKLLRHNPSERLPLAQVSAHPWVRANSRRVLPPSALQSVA

IC50 (AuroraB)	IC50 (AuroraA-TPX2)	SMILES
0.002 µM	0.027 µM	Cc1csc(-c2nnc(Nc3ccc(Oc4ccnc5cc(C(N)=O)ccc45)cc3)c3ccccc23)n1 [compound 95, 4-((4-((4-(4-methyl-1,3-thiazol-2-yl)-1-phthalazinyl)amino)phenyl)oxy)-7-quinolinecarboxamide]
0.005 µM	0.026 µM	COc1cc2nccc(Oc3ccc(Nc4nnc(-c5ccccc5)c5ccccc45)cc3)c2cn1 [compound 96, N-(4-((7-(methyloxy)-1,6-naphthyridin-4-yl)oxy)phenyl)-4-phenyl-1-phthalazinamine]
0.002 µM	0.01 µM	COc1cnc2c(Oc3ccc(Nc4nnc(N5CCN6CCC[C@H]6C5)c5ccccc45)cc3)ccnc2c1 [compound 97, 4-((8aS)-hexahydropyrrolo[1,2-a]pyrazin-2(1H)-yl)-N-(4-((7-(methyloxy)-1,5-naphthyridin-4-yl)oxy)phenyl)-1-phthalazinamine]
0.007 µM	0.016 µM	COc1cc2ncnc(Oc3ccc(Nc4nnc(-c5ccccc5)c5ccccc45)cc3)c2cc1OC [compound 98, N-(4-((6,7-bis(methyloxy)-4-quinazolinyl)oxy)phenyl)-4-phenyl-1-phthalazinamine]
0.002 µM	0.01 µM	COc1cnc2c(Oc3ccc(Nc4nnc(-c5cccc(OC)n5)c5ccccc45)cc3)ccnc2c1 [compound 99, N-(4-((7-(methyloxy)-1,5-naphthyridin-4-yl)oxy)phenyl)-4-(6-(methyloxy)-2-pyridinyl)-1-phthalazinamine]
0.006 µM	0.038 µM	COc1ccc2c(Oc3ccc(Nc4nnc(-c5cccc(OC)n5)c5ccccc45)cc3)ccnc2c1 [compound 100, 4-(6-(methyloxy)-2-pyridinyl)-N-(4-((7-(methyloxy)-4-quinolinyl)oxy)phenyl)-1-phthalazinamine]
0.01 µM	0.01 µM	COc1cccc(-c2nnc(Nc3ccc(Oc4ccnc5cc(OC)c(OC)cc45)cc3)c3ccccc23)n1 [compound 101, N-(4-((6,7-bis(methyloxy)-4-quinolinyl)oxy)phenyl)-4-(6-(methyloxy)-2-pyridinyl)-1-phthalazinamine]
0.003 µM	0.028 µM	COc1cccc(-c2nnc(Nc3ccc(Oc4ccnc5cc(C#N)ccc45)cc3)c3ccccc23)n1 [compound 102, 4-((4-((4-(6-(methyloxy)-2-pyridinyl)-1-phthalazinyl)amino)phenyl)oxy)-7-quinolinecarbonitrile]
0.004 µM	0.035 µM	COc1cc2nccc(Oc3ccc(Nc4nnc(-c5ccc(C)cn5)c5ccccc45)cc3)c2cn1 [compound 103, N-(4-((7-(methyloxy)-1,6-naphthyridin-4-yl)oxy)phenyl)-4-(5-methyl-2-pyridinyl)-1-phthalazinamine]
0.042 µM	0.036 µM	COc1cc2nccc(Sc3ccc(Nc4nnc(-c5ccccc5)c5ccccc45)cc3)c2cc1OC [compound 104, N-(4-((6,7-bis(methyloxy)-4-quinolinyl)thio)phenyl)-4-phenyl-1-phthalazinamine]
0.003 µM	0.039 µM	N#Cc1ccc2c(Oc3ccc(Nc4nnc(-c5ccccc5)c5ccccc45)cc3)ccnc2c1 [compound 105, 4-((4-((4-phenyl-1-phthalazinyl)amino)phenyl)oxy)-7-quinolinecarbonitrile]
0.038 µM	0.01 µM	COc1cc2nccc(Oc3ccc(Nc4nnc(-c5ccc(C(C)(C)C)cc5)c5ccccc45)cc3)c2cc1OC [compound 106, N-(4-((6,7-bis(methyloxy)-4-quinolinyl)oxy)phenyl)-4-(4-(1,1-dimethylethyl)phenyl)-1-phthalazinamine]
0.005 µM	0.018 µM	COc1cnc2c(Oc3ccc(Nc4nnc(-c5ccccc5)cc4C)cc3)ccnc2c1 [compound 107, 4-methyl-N-(4-((7-(methyloxy)-1,5-naphthyridin-4-yl)oxy)phenyl)-6-phenyl-3-pyridazinamine]
0.004 µM	0.016 µM	CCc1cc(-c2ccccc2)nnc1Nc1ccc(Oc2ccnc3cc(OC)cnc23)cc1 [compound 108, 4-ethyl-N-(4-((7-(methyloxy)-1,5-naphthyridin-4-yl)oxy)phenyl)-6-phenyl-3-pyridazinamine]
0.001 µM	0.06 µM	COc1cc2nccc(Oc3ccc(Nc4nnc(N5CCN(C)CC5)c5ccccc45)cc3)c2cn1 [compound 109, N-(4-((7-(methyloxy)-1,6-naphthyridin-4-yl)oxy)phenyl)-4-(4-methyl-1-piperazinyl)-1-phthalazinamine]
0.002 µM	0.043 µM	COc1cc2nccc(Oc3ccc(Nc4nnc(-c5cccc(C)n5)c5ccccc45)cc3)c2cn1 [compound 110, N-(4-((7-(methyloxy)-1,6-naphthyridin-4-yl)oxy)phenyl)-4-(6-methyl-2-pyridinyl)-1-phthalazinamine]
0.005 µM	0.04 µM	COc1cnc2c(Oc3ccc(Nc4nnc(-c5cccc(C)n5)c5ccccc45)cc3)ccnc2c1 [compound 111, N-(4-((7-(methyloxy)-1,5-naphthyridin-4-yl)oxy)phenyl)-4-(6-methyl-2-pyridinyl)-1-phthalazinamine]
0.003 µM	0.015 µM	COc1cc2nccc(Oc3ccc(Nc4nnc(-c5cccc(CO)n5)c5ccccc45)cc3)c2cc1OC [compound 112, (6-(4-((4-((6,7-bis(methyloxy)-4-quinolinyl)oxy)phenyl)amino)-1-phthalazinyl)-2-pyridinyl)methanol]
0.011 µM	0.014 µM	COc1cc2nccc(Oc3ccc(Nc4nnc(-c5cccc(COC(C)=O)n5)c5ccccc45)cc3)c2cc1OC [compound 113, (6-(4-((4-((6,7-bis(methyloxy)-4-quinolinyl)oxy)phenyl)amino)-1-phthalazinyl)-2-pyridinyl)methyl acetate]
0.005 µM	0.036 µM	COc1cnc2c(Oc3ccc(Nc4nnc(-c5cccc(CO)n5)c5ccccc45)cc3)ccnc2c1 [compound 114, (6-(4-((4-((7-(methyloxy)-1,5-naphthyridin-4-yl)oxy)phenyl)amino)-1-phthalazinyl)-2-pyridinyl)methanol]
0.006 µM	0.163 µM	Fc1cc(Nc2nnc(-c3ccccc3)c3ccccc23)ccc1Oc1ccnc2ccccc12 [compound 115, N-(3-fluoro-4-(4-quinolinyloxy)phenyl)-4-phenyl-1-phthalazinamine]
0.011 µM	0.062 µM	COc1cnc2c(Oc3ccc(Nc4nnc(-c5cc(C)ccn5)c5ccccc45)cc3)ccnc2c1 [compound 116, N-(4-((7-(methyloxy)-1,5-naphthyridin-4-yl)oxy)phenyl)-4-(4-methyl-2-pyridinyl)-1-phthalazinamine]
0.043 µM	0.057 µM	COc1cc2nccc(Oc3ccc(Nc4nnc(-c5cc(C)ccn5)c5ccccc45)cc3)c2cc1OC [compound 117, N-(4-((6,7-bis(methyloxy)-4-quinolinyl)oxy)phenyl)-4-(4-methyl-2-pyridinyl)-1-phthalazinamine]
0.009 µM	0.136 µM	COc1ccc2c(Oc3ccc(Nc4nnc(-c5cc(C)ccn5)c5ccccc45)cc3)ccnc2c1 [compound 118, N-(4-((7-(methyloxy)-4-quinolinyl)oxy)phenyl)-4-(4-methyl-2-pyridinyl)-1-phthalazinamine]
0.007 µM	0.175 µM	COc1ccccc1-c1nnc(Nc2ccc(Oc3ccnc4cc(C#N)ccc34)cc2)c2ccccc12 [compound 119, 4-((4-((4-(2-(methyloxy)phenyl)-1-phthalazinyl)amino)phenyl)oxy)-7-quinolinecarbonitrile]
0.003 µM	0.019 µM	COCc1cccc(-c2nnc(Nc3ccc(Oc4ccnc5cc(OC)cnc45)cc3)c3ccccc23)n1 [compound 120, 4-(6-((methyloxy)methyl)-2-pyridinyl)-N-(4-((7-(methyloxy)-1,5-naphthyridin-4-yl)oxy)phenyl)-1-phthalazinamine]
0.007 µM	0.041 µM	COc1cc2nccc(Oc3ccc(Nc4nnc(-c5cc(C)ccn5)c5ccccc45)cc3)c2cn1 [compound 121, N-(4-((7-(methyloxy)-1,6-naphthyridin-4-yl)oxy)phenyl)-4-(4-methyl-2-pyridinyl)-1-phthalazinamine]
0.003 µM	0.022 µM	Cc1ccc(-c2nnc(Nc3ccc(Oc4ccnc5cc(C#N)ccc45)cc3)c3ccccc23)nc1 [compound 122, 4-((4-((4-(5-methyl-2-pyridinyl)-1-phthalazinyl)amino)phenyl)oxy)-7-quinolinecarbonitrile]
0.015 µM	0.132 µM	COc1cc2ncnc(Oc3ccc(Nc4nnc(-c5cc(C)ccn5)c5ccccc45)cc3)c2cc1OC [compound 123, N-(4-((6,7-bis(methyloxy)-4-quinazolinyl)oxy)phenyl)-4-(4-methyl-2-pyridinyl)-1-phthalazinamine]
0.002 µM	0.042 µM	COc1cc2nccc(Nc3ccc(Nc4nnc(-c5ccccc5)c5ccccc45)cc3)c2cn1 [compound 124, N-(7-(methyloxy)-1,6-naphthyridin-4-yl)-N′-(4-phenyl-1-phthalazinyl)-1,4-benzenediamine]
